Measurements from article PMC8256334, “Simultaneous Determination of a Novel PD-L1 Inhibitor, IMMH-010, and Its Active Metabolite, YPD-29B, in Rat Biological Matrices by Polarity-Switching Liquid Chromatography-Tandem Mass Spectrometry: Application to ADME Studies” (Frontiers in Pharmacology, 2021).
Where two headings read alike, the source gives them in different places.

How the values were obtained:
[1] = Tissue distribution study in rats; type: in vivo, Sprague-Dawley rats; details: for concentration in adrenal gland / concentration in brain / concentration in heart / concentration in kidney / concentration in liver / concentration in lung / concentration in lymph / concentration in plasma / concentration in spleen / concentration in thymus: n = 5; for Kp at 0.25 h / Kp at 0.5 h / Kp at 4 h: female, Sprague-Dawley, rat, oral, i.g. 10 mg/kg IMMH-010 maleate, read-out: T/P (tissue-to-plasma partition); for concentrations in tissues at 12 h: rat tissues, 12 h after oral 10 mg/kg IMMH-010 maleate; for tissues of main distribution: rats, oral 10 mg/kg IMMH-010 maleate
Protocol: Female Sprague-Dawley rats (200 ± 20 g, Vital River, Beijing, China) were kept in standard environmental conditions. Rats were fasted overnight with free access to water and randomly assigned to different groups before the experiments. All animal protocols were approved by the Institute Animal Care and Welfare Committee of the Institute of Materia Medica, Chinese Academy of Medical Sciences and Peking Union Medical College.
The tissue distribution study was performed 15 min, 30 min, 4 h and 12 h after i. g. administration of 10 mg/kg IMMH-010 maleate. Blood was collected and centrifuged at 5,000 rpm for 10 min. The heart, liver, brain, spleen, lung, kidney, adrenal gland, thymus, and lymph were harvested immediately. The tissues were washed with normal saline and blotted dry with filter paper. All samples were stored at -20°C before analysis.

[2] = system: various carcinoma xenograft models; details: cited from earlier work
[3] = adrenal gland, time 0.25 (15 min) after i.g. 10 mg/kg IMMH-010 maleate
[4] = adrenal gland, time 0.5 (30 min) after i.g. 10 mg/kg IMMH-010 maleate
[5] = adrenal gland, time 4 (4 h) after i.g. 10 mg/kg IMMH-010 maleate
[6] = brain, time 0.25 (15 min) after i.g. 10 mg/kg IMMH-010 maleate
[7] = brain, time 0.5 (30 min) after i.g. 10 mg/kg IMMH-010 maleate
[8] = brain, time 4 (4 h) after i.g. 10 mg/kg IMMH-010 maleate
[9] = heart, time 0.25 (15 min) after i.g. 10 mg/kg IMMH-010 maleate
[10] = heart, time 0.5 (30 min) after i.g. 10 mg/kg IMMH-010 maleate
[11] = heart, time 4 (4 h) after i.g. 10 mg/kg IMMH-010 maleate
[12] = kidney, time 0.25 (15 min) after i.g. 10 mg/kg IMMH-010 maleate
[13] = kidney, time 0.5 (30 min) after i.g. 10 mg/kg IMMH-010 maleate
[14] = kidney, time 4 (4 h) after i.g. 10 mg/kg IMMH-010 maleate
[15] = liver, time 0.25 (15 min) after i.g. 10 mg/kg IMMH-010 maleate
[16] = liver, time 0.5 (30 min) after i.g. 10 mg/kg IMMH-010 maleate
[17] = liver, time 4 (4 h) after i.g. 10 mg/kg IMMH-010 maleate
[18] = lung, time 0.25 (15 min) after i.g. 10 mg/kg IMMH-010 maleate
[19] = lung, time 0.5 (30 min) after i.g. 10 mg/kg IMMH-010 maleate
[20] = lung, time 4 (4 h) after i.g. 10 mg/kg IMMH-010 maleate
[21] = lymph, time 0.25 (15 min) after i.g. 10 mg/kg IMMH-010 maleate
[22] = lymph, time 0.5 (30 min) after i.g. 10 mg/kg IMMH-010 maleate
[23] = lymph, time 4 (4 h) after i.g. 10 mg/kg IMMH-010 maleate
[24] = time 0.25 (15 min) after i.g. 10 mg/kg IMMH-010 maleate
[25] = time 0.5 (30 min) after i.g. 10 mg/kg IMMH-010 maleate
[26] = time 4 (4 h) after i.g. 10 mg/kg IMMH-010 maleate
[27] = spleen, time 0.25 (15 min) after i.g. 10 mg/kg IMMH-010 maleate
[28] = spleen, time 0.5 (30 min) after i.g. 10 mg/kg IMMH-010 maleate
[29] = spleen, time 4 (4 h) after i.g. 10 mg/kg IMMH-010 maleate
[30] = thymus, time 0.25 (15 min) after i.g. 10 mg/kg IMMH-010 maleate
[31] = thymus, time 0.5 (30 min) after i.g. 10 mg/kg IMMH-010 maleate
[32] = thymus, time 4 (4 h) after i.g. 10 mg/kg IMMH-010 maleate

For `O=C(O)[C@H](CO)NCc1cc(Cl)c(OCc2cccc(-c3ccccc3)c2Br)cc1OCc1cccnc1` [YPD-29B], the “concentration in adrenal gland” value [1, 3] was 15.3 ± 10.8 ng/ml or ng/g, the “concentration in adrenal gland” value [1, 4] was 39.7 ± 45.3 ng/ml or ng/g and the “concentration in adrenal gland” value [1, 5] was “BLQ”. For the same compound, the concentration in brain [1, 6] was “BLQ”, the concentration in brain [1, 7] was “BLQ” and the concentration in brain [1, 8] was “BLQ”. It also gave a Kp at 0.25 h ([1]; adrenal gland) of 0.5, a Kp at 0.5 h ([1]; adrenal gland) of 0.7 and a Kp at 0.25 h ([1]; heart) of 0.5. The Kp at 0.5 h ([1]; heart) was 0.7, the Kp at 0.25 h ([1]; kidney) was 2 and the Kp at 0.5 h ([1]; kidney) was 4.8. The Kp at 4 h ([1]; kidney) was 34.6, the Kp at 0.25 h ([1]; liver) was 43.8 and the Kp at 0.5 h ([1]; liver) was 58.2. For the same compound, the Kp at 4 h ([1]; liver) was 40.1, the Kp at 0.25 h ([1]; lung) was 1.1 and the Kp at 0.5 h ([1]; lung) was 2. For the same compound, the Kp at 4 h ([1]; lung) was 4.4, the Kp at 0.25 h ([1]; lymph) was 1.6 and the Kp at 0.5 h ([1]; lymph) was 6.8. For the same compound, the Kp at 4 h ([1]; lymph) was 9.1, the Kp at 0.25 h ([1]; spleen) was 0.5 and the Kp at 0.5 h ([1]; spleen) was 0.9. For the same compound, the Kp at 0.5 h ([1]; thymus) was 0.05, the Kp at 4 h ([1]; thymus) was 0.5 and the concentration in heart [1, 9] was 17.3 ± 11.9 ng/ml or ng/g. For the same compound, the concentration in heart [1, 10] was 39.6 ± 33.7 ng/ml or ng/g, the concentration in heart [1, 11] was “BLQ” and the concentration in kidney [1, 12] was 64.2 ± 40.4 ng/ml or ng/g. For the same compound, the concentration in kidney [1, 13] was 265 ± 222 ng/ml or ng/g, the concentration in kidney [1, 14] was 168 ± 23 ng/ml or ng/g and the concentration in liver [1, 15] was 1,403 ± 962 ng/ml or ng/g. The concentration in liver [1, 16] was 3,239 ± 2,833 ng/ml or ng/g, the concentration in liver [1, 17] was 195 ± 56 ng/ml or ng/g and the concentration in lung [1, 18] was 35.7 ± 22.8 ng/ml or ng/g. The concentration in lung [1, 19] was 109 ± 104 ng/ml or ng/g, the concentration in lung [1, 20] was 21.4 ± 6.8 ng/ml or ng/g and the concentration in lymph [1, 21] was 51.5 ± 41.0 ng/ml or ng/g. The concentration in lymph [1, 22] was 378 ± 451 ng/ml or ng/g, the concentration in lymph [1, 23] was 44.0 ± 13.9 ng/ml or ng/g and the concentration in plasma [1, 24] was 32.0 ± 25.2 ng/ml or ng/g. For the same compound, the concentration in plasma [1, 25] was 55.7 ± 51.6 ng/ml or ng/g, the concentration in plasma [1, 26] was 4.86 ± 1.39 ng/ml or ng/g and the “concentrations in tissues at 12 h” value [1] was “below the LLOQ”. The “tissues of main distribution” value [1] was “liver, followed by the lymph, kidney, and lung”, the concentration in spleen [1, 27] was 15.1 ± 10.8 ng/ml or ng/g and the concentration in spleen [1, 28] was 48.4 ± 47.9 ng/ml or ng/g. For the same compound, the concentration in spleen [1, 29] was “BLQ”, the concentration in thymus [1, 30] was “BLQ” and the concentration in thymus [1, 31] was 2.74 ± 6.12 ng/ml or ng/g. For the same compound, the concentration in thymus [1, 32] was 2.23 ± 4.99 ng/ml or ng/g.
For `CC(C)OC(=O)C(CO)NCc1cc(Cl)c(OCc2cccc(-c3ccccc3)c2Br)cc1OCc1cccnc1` (centres unmarked) [IMMH-010, 2-[4-(2-bromo-biphenyl-3-ylmethoxy)-5-chloro-2-(pyridin-3-ylmethoxy)-benzylamino]-3-hydroxy-propionic acid isopropyl ester], the “concentration in adrenal gland” value [1, 3] was 80.8 ± 47.4 ng/ml or ng/g, the “concentration in adrenal gland” value [1, 4] was 204 ± 132 ng/ml or ng/g and the “concentration in adrenal gland” value [1, 5] was 41.3 ± 6.9 ng/ml or ng/g. For the same compound, the concentration in brain [1, 6] was 6.22 ± 0.34 ng/ml or ng/g, the concentration in brain [1, 7] was 3.66 ± 3.35 ng/ml or ng/g and the concentration in brain [1, 8] was “BLQ”. For the same compound, the Kp at 0.25 h ([1]; adrenal gland) was 25, the Kp at 0.5 h ([1]; adrenal gland) was 51.1 and the Kp at 0.25 h ([1]; brain) was 1.9. For the same compound, the Kp at 0.5 h ([1]; brain) was 0.9, the Kp at 0.25 h ([1]; heart) was 5.4 and the Kp at 0.5 h ([1]; heart) was 9.5. For the same compound, the Kp at 0.25 h ([1]; liver) was 3.8, the Kp at 0.5 h ([1]; liver) was 6.4 and the Kp at 0.5 h ([1]; lung) was 0.3. It also gave a Kp at 0.25 h ([1]; lymph) of 1.7, a Kp at 0.5 h ([1]; lymph) of 21.2 and a Kp at 0.25 h ([1]; spleen) of 0.9. For the same compound, the Kp at 0.5 h ([1]; spleen) was 2, the concentration in heart [1, 9] was 17.3 ± 10.5 ng/ml or ng/g and the concentration in heart [1, 10] was 38.1 ± 25.8 ng/ml or ng/g. For the same compound, the concentration in heart [1, 11] was 1.92 ± 2.66 ng/ml or ng/g, the concentration in kidney [1, 12] was “BLQ” and the concentration in kidney [1, 13] was “BLQ”. The concentration in kidney [1, 14] was “BLQ”, the concentration in liver [1, 15] was 12.4 ± 13.4 ng/ml or ng/g and the concentration in liver [1, 16] was 25.6 ± 19.8 ng/ml or ng/g. For the same compound, the concentration in liver [1, 17] was 6.30 ± 5.77 ng/ml or ng/g, the concentration in lung [1, 18] was “BLQ” and the concentration in lung [1, 19] was 1.37 ± 3.06 ng/ml or ng/g. For the same compound, the concentration in lung [1, 20] was “BLQ”, the concentration in lymph [1, 21] was 5.46 ± 5.1 ng/ml or ng/g and the concentration in lymph [1, 22] was 84.6 ± 87.9 ng/ml or ng/g. For the same compound, the concentration in lymph [1, 23] was 12.5 ± 7.1 ng/ml or ng/g, the concentration in plasma [1, 24] was 3.23 ± 2.28 ng/ml or ng/g and the concentration in plasma [1, 25] was 3.99 ± 3.45 ng/ml or ng/g. For the same compound, the concentration in plasma [1, 26] was “BLQ”, the “concentrations in tissues at 12 h” value [1] was “below the LLOQ” and the “tissues of main distribution” value [1] was “adrenal gland, followed by the lymph, heart, liver and spleen”. For the same compound, the concentration in spleen [1, 27] was 2.98 ± 2.77 ng/ml or ng/g, the concentration in spleen [1, 28] was 8.08 ± 8.51 ng/ml or ng/g and the concentration in spleen [1, 29] was 0.848 ± 1.896 ng/ml or ng/g. For the same compound, the concentration in thymus [1, 30] was “BLQ”, the concentration in thymus [1, 31] was “BLQ” and the concentration in thymus [1, 32] was “BLQ”. The antitumor activity [2] was “significant antitumor activity”.
